HELM strings list units from the 5' end as sugar, base in round brackets, then linkage (d deoxyribose, r ribose, m 2'-O-methyl, p phosphodiester). Strings are as the collection lists them, not checked against the first reports. ss, as = sense and antisense strand; [fl2r] = 2'-fluoro
conditions: siRNA
Further: test system not given here.

Substance	target mRNA knockdown [%]
RNA1{r(A)p.r(G)p.r(U)p.r(U)p.r(U)p.r(C)p.[fl2r](U)p.[fl2r](A)p.r(G)p.r(G)p.r(G)p.r(C)p.r(C)p.r(G)p.r(U)p.r(G)p.r(G)p.r(C)p.r(C)p.r(T)p.r(T)}|RNA2{r(G)p.r(G)p.r(C)p.r(C)p.r(A)p.r(C)p.r(G)p.r(G)p.r(C)p.r(C)p.r(C)p.[fl2r](U)p.r(A)p.r(G)p.r(A)p.r(A)p.r(A)p.r(C)p.r(U)p.r(T)p.r(T)}$$$RNA1{StrandType:ss}|RNA2{StrandType:as}$	82
RNA1{r(A)p.r(G)p.r(U)p.r(U)p.r(U)p.r(C)p.[fl2r](U)p.r(A)p.r(G)p.r(G)p.r(G)p.r(C)p.r(C)p.r(G)p.[fl2r](U)p.r(G)p.r(G)p.r(C)p.r(C)p.r(T)p.r(T)}|RNA2{r(G)p.r(G)p.r(C)p.[fl2r](C)p.r(A)p.r(C)p.r(G)p.[fl2r](G)p.r(C)p.r(C)p.r(C)p.[fl2r](U)p.r(A)p.r(G)p.r(A)p.r(A)p.r(A)p.r(C)p.r(U)p.r(T)p.r(T)}$$$RNA1{StrandType:ss}|RNA2{StrandType:as}$	85
RNA1{r(A)p.r(U)p.m(A)p.r(C)p.r(U)p.r(U)p.r(G)p.r(G)p.r(C)p.r(G)p.r(G)p.r(G)p.r(C)p.r(U)p.r(C)p.r(U)p.r(U)p.r(U)p.r(C)p.r(T)p.r(T)}|RNA2{r(G)p.r(A)p.r(A)p.r(A)p.r(G)p.r(A)p.r(G)p.r(C)p.r(C)p.r(C)p.r(G)p.r(C)p.m(C)p.r(A)p.r(A)p.r(G)p.r(U)p.r(A)p.r(U)p.r(T)p.r(T)}$$$RNA1{StrandType:ss}|RNA2{StrandType:as}$	72
RNA1{r(A)p.r(U)p.m(C)p.r(A)p.m(C)p.r(A)p.r(A)p.r(A)p.r(C)p.r(C)p.r(C)p.r(C)p.m(U)p.r(A)p.r(G)p.r(A)p.r(G)p.r(G)p.r(G)p.r(T)p.r(T)}|RNA2{r(C)p.r(C)p.r(C)p.r(U)p.r(C)p.m(U)p.r(A)p.m(G)p.r(G)p.r(G)p.r(G)p.r(U)p.r(U)p.r(U)p.r(G)p.m(U)p.r(G)p.r(A)p.r(U)p.r(T)p.r(T)}$$$RNA1{StrandType:ss}|RNA2{StrandType:as}$	27
RNA1{r(A)p.r(U)p.m(C)p.r(A)p.m(C)p.r(A)p.r(A)p.r(A)p.r(C)p.r(C)p.r(C)p.r(C)p.m(U)p.r(A)p.r(G)p.r(A)p.r(G)p.r(G)p.r(G)p.r(T)p.r(T)}|RNA2{r(C)p.r(C)p.r(C)p.r(U)p.r(C)p.m(U)p.r(A)p.r(G)p.r(G)p.r(G)p.r(G)p.r(U)p.r(U)p.m(U)p.r(G)p.m(U)p.r(G)p.r(A)p.r(U)p.r(T)p.r(T)}$$$RNA1{StrandType:ss}|RNA2{StrandType:as}$	75
RNA1{r(A)p.r(U)p.m(C)p.r(A)p.m(C)p.r(A)p.r(A)p.r(A)p.r(C)p.r(C)p.r(C)p.r(C)p.r(U)p.r(A)p.r(G)p.r(A)p.r(G)p.r(G)p.r(G)p.r(T)p.r(T)}|RNA2{r(C)p.r(C)p.r(C)p.r(U)p.r(C)p.m(U)p.r(A)p.r(G)p.r(G)p.r(G)p.r(G)p.r(U)p.r(U)p.r(U)p.r(G)p.m(U)p.r(G)p.r(A)p.r(U)p.r(T)p.r(T)}$$$RNA1{StrandType:ss}|RNA2{StrandType:as}$	75
RNA1{r(A)p.r(U)p.m(C)p.r(A)p.r(G)p.r(A)p.r(G)p.r(G)p.r(G)p.r(A)p.r(G)p.r(G)p.r(U)p.r(C)p.r(U)p.m(U)p.r(A)p.r(G)p.r(A)p.r(T)p.r(T)}|RNA2{r(U)p.r(C)p.m(U)p.r(A)p.r(A)p.r(G)p.r(A)p.r(C)p.r(C)p.r(U)p.r(C)p.r(C)p.r(C)p.r(U)p.r(C)p.m(U)p.r(G)p.r(A)p.r(U)p.r(T)p.r(T)}$$$RNA1{StrandType:ss}|RNA2{StrandType:as}$	68
RNA1{r(A)p.r(U)p.r(C)p.m(G)p.r(A)p.r(C)p.r(C)p.m(U)p.r(G)p.r(A)p.r(A)p.r(G)p.r(G)p.r(A)p.r(G)p.m(U)p.r(A)p.r(C)p.r(G)p.r(T)p.r(T)}|RNA2{r(C)p.r(G)p.m(U)p.r(A)p.r(C)p.r(U)p.r(C)p.r(C)p.r(U)p.r(U)p.m(C)p.r(A)p.r(G)p.r(G)p.r(U)p.r(C)p.r(G)p.r(A)p.r(U)p.r(T)p.r(T)}$$$RNA1{StrandType:ss}|RNA2{StrandType:as}$	29
RNA1{r(A)p.r(U)p.r(C)p.m(U)p.r(A)p.r(C)p.r(C)p.m(C)p.r(A)p.r(G)p.r(C)p.r(U)p.r(C)p.m(U)p.r(C)p.r(C)p.r(C)p.r(U)p.r(U)p.r(T)p.r(T)}|RNA2{r(A)p.r(A)p.r(G)p.r(G)p.r(G)p.r(A)p.r(G)p.r(A)p.r(G)p.r(C)p.m(U)p.r(G)p.r(G)p.r(G)p.m(U)p.r(A)p.r(G)p.r(A)p.r(U)p.r(T)p.r(T)}$$$RNA1{StrandType:ss}|RNA2{StrandType:as}$	75
RNA1{r(A)p.r(U)p.r(C)p.m(U)p.r(A)p.r(C)p.r(C)p.r(C)p.r(A)p.r(G)p.r(C)p.r(U)p.r(C)p.r(U)p.r(C)p.r(C)p.r(C)p.r(U)p.r(U)p.r(T)p.r(T)}|RNA2{r(A)p.r(A)p.r(G)p.r(G)p.r(G)p.r(A)p.r(G)p.r(A)p.r(G)p.r(C)p.r(U)p.r(G)p.r(G)p.r(G)p.m(U)p.r(A)p.r(G)p.r(A)p.r(U)p.r(T)p.r(T)}$$$RNA1{StrandType:ss}|RNA2{StrandType:as}$	77
RNA1{r(A)p.r(U)p.r(C)p.r(A)p.r(C)p.r(A)p.r(A)p.r(A)p.r(C)p.r(C)p.r(C)p.r(C)p.m(U)p.r(A)p.r(G)p.r(A)p.r(G)p.r(G)p.r(G)p.r(T)p.r(T)}|RNA2{r(C)p.r(C)p.r(C)p.r(U)p.r(C)p.m(U)p.r(A)p.r(G)p.r(G)p.r(G)p.r(G)p.r(U)p.r(U)p.r(U)p.r(G)p.r(U)p.r(G)p.r(A)p.r(U)p.r(T)p.r(T)}$$$RNA1{StrandType:ss}|RNA2{StrandType:as}$	29
RNA1{r(A)p.r(U)p.r(C)p.r(A)p.r(G)p.r(A)p.r(G)p.r(G)p.r(G)p.r(A)p.r(G)p.r(G)p.r(U)p.r(C)p.r(U)p.m(U)p.r(A)p.r(G)p.r(A)p.r(T)p.r(T)}|RNA2{r(U)p.r(C)p.m(U)p.r(A)p.r(A)p.r(G)p.r(A)p.r(C)p.r(C)p.r(U)p.r(C)p.r(C)p.r(C)p.r(U)p.r(C)p.r(U)p.r(G)p.r(A)p.r(U)p.r(T)p.r(T)}$$$RNA1{StrandType:ss}|RNA2{StrandType:as}$	69
RNA1{r(A)p.r(U)p.r(C)p.r(C)p.m(U)p.r(G)p.m(C)p.r(A)p.r(G)p.r(A)p.r(A)p.m(G)p.r(A)p.r(A)p.r(G)p.r(C)p.r(C)p.r(U)p.r(C)p.r(T)p.r(T)}|RNA2{r(G)p.r(A)p.r(G)p.r(G)p.r(C)p.r(U)p.r(U)p.r(C)p.r(U)p.r(U)p.r(C)p.m(U)p.r(G)p.m(C)p.r(A)p.r(G)p.r(G)p.r(A)p.r(U)p.r(T)p.r(T)}$$$RNA1{StrandType:ss}|RNA2{StrandType:as}$	50
RNA1{r(A)p.r(U)p.r(C)p.r(C)p.m(U)p.r(G)p.m(C)p.r(A)p.r(G)p.r(A)p.r(A)p.r(G)p.r(A)p.r(A)p.r(G)p.r(C)p.r(C)p.r(U)p.r(C)p.r(T)p.r(T)}|RNA2{r(G)p.r(A)p.r(G)p.r(G)p.r(C)p.r(U)p.r(U)p.r(C)p.r(U)p.r(U)p.r(C)p.r(U)p.r(G)p.r(C)p.r(A)p.r(G)p.r(G)p.r(A)p.r(U)p.r(T)p.r(T)}$$$RNA1{StrandType:ss}|RNA2{StrandType:as}$	74
RNA1{r(A)p.r(U)p.r(C)p.r(G)p.r(A)p.r(C)p.r(C)p.[fl2r](U)p.r(G)p.r(A)p.r(A)p.r(G)p.r(G)p.r(A)p.r(G)p.[fl2r](U)p.r(A)p.r(C)p.r(G)p.r(T)p.r(T)}|RNA2{r(C)p.r(G)p.[fl2r](U)p.r(A)p.r(C)p.r(U)p.r(C)p.r(C)p.r(U)p.r(U)p.[fl2r](C)p.r(A)p.r(G)p.r(G)p.r(U)p.r(C)p.r(G)p.r(A)p.r(U)p.r(T)p.r(T)}$$$RNA1{StrandType:ss}|RNA2{StrandType:as}$	46
RNA1{r(A)p.r(U)p.r(C)p.r(G)p.r(A)p.r(C)p.r(C)p.m(U)p.r(G)p.r(A)p.r(A)p.r(G)p.r(G)p.r(A)p.r(G)p.m(U)p.r(A)p.r(C)p.r(G)p.r(T)p.r(T)}|RNA2{r(C)p.r(G)p.m(U)p.r(A)p.r(C)p.r(U)p.r(C)p.r(C)p.r(U)p.r(U)p.r(C)p.r(A)p.r(G)p.r(G)p.r(U)p.r(C)p.r(G)p.r(A)p.r(U)p.r(T)p.r(T)}$$$RNA1{StrandType:ss}|RNA2{StrandType:as}$	30
RNA1{r(A)p.r(U)p.r(C)p.r(G)p.r(A)p.r(C)p.r(C)p.r(U)p.r(G)p.r(A)p.r(A)p.r(G)p.r(G)p.r(A)p.r(G)p.[fl2r](U)p.r(A)p.r(C)p.r(G)p.r(T)p.r(T)}|RNA2{r(C)p.r(G)p.r(U)p.[fl2r](A)p.r(C)p.r(U)p.r(C)p.r(C)p.r(U)p.r(U)p.r(C)p.r(A)p.r(G)p.r(G)p.r(U)p.r(C)p.r(G)p.r(A)p.r(U)p.r(T)p.r(T)}$$$RNA1{StrandType:ss}|RNA2{StrandType:as}$	82
RNA1{r(A)p.r(U)p.r(C)p.r(G)p.r(C)p.[fl2r](U)p.r(G)p.r(C)p.[fl2r](U)p.r(C)p.r(C)p.[fl2r](U)p.r(C)p.r(C)p.r(U)p.r(C)p.r(C)p.r(U)p.r(C)p.r(T)p.r(T)}|RNA2{r(G)p.r(A)p.r(G)p.r(G)p.r(A)p.r(G)p.r(G)p.r(A)p.r(G)p.r(G)p.r(A)p.r(G)p.[fl2r](C)p.r(A)p.r(G)p.r(C)p.r(G)p.r(A)p.r(U)p.r(T)p.r(T)}$$$RNA1{StrandType:ss}|RNA2{StrandType:as}$	69
RNA1{r(A)p.r(U)p.r(C)p.r(G)p.r(C)p.[fl2r](U)p.r(G)p.r(C)p.r(U)p.r(C)p.r(C)p.r(U)p.r(C)p.r(C)p.r(U)p.r(C)p.r(C)p.r(U)p.r(C)p.r(T)p.r(T)}|RNA2{r(G)p.r(A)p.r(G)p.r(G)p.r(A)p.r(G)p.r(G)p.r(A)p.r(G)p.r(G)p.r(A)p.r(G)p.[fl2r](C)p.r(A)p.r(G)p.r(C)p.r(G)p.r(A)p.r(U)p.r(T)p.r(T)}$$$RNA1{StrandType:ss}|RNA2{StrandType:as}$	71
RNA1{r(A)p.r(U)p.r(C)p.r(G)p.r(U)p.r(C)p.r(G)p.r(U)p.m(C)p.r(A)p.r(G)p.r(G)p.r(G)p.m(U)p.r(A)p.r(A)p.r(G)p.r(G)p.r(U)p.r(T)p.r(T)}|RNA2{r(A)p.r(C)p.r(C)p.r(U)p.m(U)p.r(A)p.r(C)p.r(C)p.r(C)p.m(U)p.r(G)p.r(A)p.r(C)p.r(G)p.r(A)p.r(C)p.r(G)p.r(A)p.r(U)p.r(T)p.r(T)}$$$RNA1{StrandType:ss}|RNA2{StrandType:as}$	47

— the OligoGym collection
